According to ChEMBL document CHEMBL1201862, “PubChem BioAssay data set” (2004):
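Cells were grown in 96-well plates and exposed to each compound for 48 hours at five concentrations; endpoints were interpolated linearly between bracketing concentrations, or set to the highest concentration if not reached. GI50 is the concentration that inhibits growth by half.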 Calls of active or inactive are those of the source. Cut-off read from the data, not from the text of the source: active = GI50 up to about 1.1 µM and inactive = higher.

Experiments:
Test in all cases: inhibition of tumour cell growth, NCI panel, 48 h
[1] = tested on: A549
[2] = tested on: EKVX
[3] = tested on: 786-0
[4] = tested on: NCI-H522
[5] = tested on: SW-620
[6] = tested on: Hs-578T
[7] = tested on: HCT-15
[8] = tested on: SK-MEL-28
[9] = tested on: SN12C
[10] = tested on: SF-268
[11] = tested on: SNB-75
[12] = tested on: PC-3
[13] = tested on: ACHN
[14] = tested on: T47D
[15] = tested on: MDA-MB-435
[16] = tested on: OVCAR-5
[17] = tested on: RPMI-8226
[18] = tested on: HT-29
[19] = tested on: K562
[20] = tested on: OVCAR-4
[21] = tested on: DU-145
[22] = tested on: OVCAR-8
[23] = tested on: NCI-H460
[24] = tested on: Malme-3M
[25] = tested on: COLO 205
[26] = tested on: CCRF-CEM
[27] = tested on: IGROV-1
[28] = tested on: SF-295
[29] = tested on: SR
[30] = tested on: SK-MEL-5
[31] = tested on: SK-MEL-2
[32] = tested on: HCT-116
[33] = tested on: MDA-N
[34] = tested on: NCI-H23
[35] = tested on: KM12
[36] = tested on: HOP-62
[37] = tested on: U-251
[38] = tested on: M14
[39] = tested on: MDA-MB-231
[40] = tested on: SK-OV-3
[41] = tested on: UACC-62
[42] = tested on: HL-60
[43] = tested on: NCI/ADR-RES
[44] = tested on: UACC-257
[45] = tested on: HCC 2998
[46] = tested on: UO-31
[47] = tested on: SNB-19
[48] = tested on: CAKI-1
[49] = tested on: NCI-H226
[50] = tested on: RXF 393
[51] = tested on: A498
[52] = tested on: MOLT-4
[53] = tested on: LOX IMVI
[54] = tested on: OVCAR-3
[55] = tested on: SF-539
[56] = tested on: MCF7
[57] = tested on: TK-10
[58] = tested on: BT-549
[59] = tested on: HOP-92

Question: For O=C1c2ccccc2C(=O)c2c(NC3CCCCC3)ccc(Nc3ccc(S(=O)(=O)O)cc3)c21, which GI50 [1] is on record?
Answer: 33.9 µM (inactive)

Question: And the GI50 [2]?
Answer: 17 µM (inactive)

Question: What about the GI50 [3] of the same molecule?
Answer: 45.7 µM (inactive)

Question: What about the GI50 [4] of the same molecule?
Answer: 20.6 µM (inactive)

Question: What about the GI50 [5] of the same molecule?
Answer: 35.2 µM (inactive)

Question: What about the GI50 [6] of the same molecule?
Answer: > 100 µM (inactive)

Question: And the GI50 [7]?
Answer: 32.6 µM

Question: What about the GI50 [8] of the same molecule?
Answer: > 100 µM (inactive)

Question: And the GI50 [9]?
Answer: 20.6 µM (inactive)

Question: And the GI50 [10]?
Answer: 34.8 µM (inactive)

Question: What about the GI50 [11] of the same molecule?
Answer: > 100 µM (inactive)

Question: And the GI50 [12]?
Answer: 22.6 µM (inactive)

Question: And the GI50 [13]?
Answer: 38.8 µM (inactive)

Question: What about the GI50 [14] of the same molecule?
Answer: 29 µM (inactive)

Question: And the GI50 [15]?
Answer: 39.1 µM (inactive)

Question: What about the GI50 [16] of the same molecule?
Answer: > 100 µM (inactive)

Question: What about the GI50 [17] of the same molecule?
Answer: 45.2 µM (inactive)

Question: What about the GI50 [18] of the same molecule?
Answer: 39.4 µM (inactive)

Question: What about the GI50 [19] of the same molecule?
Answer: 52 µM (inactive)

Question: And the GI50 [20]?
Answer: 33.9 µM (inactive)

Question: What about the GI50 [21] of the same molecule?
Answer: > 100 µM (inactive)

Question: And the GI50 [22]?
Answer: 35.3 µM (inactive)

Question: And the GI50 [23]?
Answer: 62.5 µM (inactive)

Question: And the GI50 [24]?
Answer: 23.4 µM (inactive)

Question: And the GI50 [25]?
Answer: 20.1 µM (inactive)

Question: What about the GI50 [26] of the same molecule?
Answer: 26.3 µM (inactive)

Question: What about the GI50 [27] of the same molecule?
Answer: 32.7 µM (inactive)

Question: What about the GI50 [28] of the same molecule?
Answer: > 100 µM (inactive)

Question: And the GI50 [29]?
Answer: 36.1 µM (inactive)

Question: And the GI50 [30]?
Answer: 63 µM (inactive)

Question: And the GI50 [31]?
Answer: 21.8 µM (inactive)

Question: And the GI50 [32]?
Answer: 29.7 µM (inactive)

Question: And the GI50 [33]?
Answer: 46 µM (inactive)

Question: And the GI50 [34]?
Answer: 77.1 µM (inactive)

Question: And the GI50 [35]?
Answer: 30.9 µM (inactive)

Question: What about the GI50 [36] of the same molecule?
Answer: > 100 µM (inactive)

Question: What about the GI50 [37] of the same molecule?
Answer: 29.6 µM (inactive)

Question: What about the GI50 [38] of the same molecule?
Answer: 35.1 µM (inactive)

Question: What about the GI50 [39] of the same molecule?
Answer: 22.5 µM (inactive)

Question: And the GI50 [40]?
Answer: > 100 µM (inactive)

Question: And the GI50 [41]?
Answer: > 100 µM (inactive)

Question: And the GI50 [42]?
Answer: 31.6 µM (inactive)

Question: And the GI50 [43]?
Answer: > 100 µM (inactive)

Question: And the GI50 [44]?
Answer: 23.9 µM (inactive)

Question: And the GI50 [45]?
Answer: 26.5 µM (inactive)

Question: And the GI50 [46]?
Answer: 59 µM (inactive)

Question: And the GI50 [47]?
Answer: 84.5 µM (inactive)

Question: What about the GI50 [48] of the same molecule?
Answer: > 100 µM (inactive)

Question: And the GI50 [49]?
Answer: > 100 µM (inactive)

Question: And the GI50 [50]?
Answer: 83.6 µM (inactive)

Question: What about the GI50 [51] of the same molecule?
Answer: > 100 µM (inactive)

Question: And the GI50 [52]?
Answer: 34.9 µM (inactive)

Question: What about the GI50 [53] of the same molecule?
Answer: 32.7 µM (inactive)

Question: And the GI50 [54]?
Answer: 28.2 µM (inactive)

Question: And the GI50 [55]?
Answer: 32.2 µM (inactive)

Question: What about the GI50 [56] of the same molecule?
Answer: 21.3 µM (inactive)

Question: And the GI50 [57]?
Answer: > 100 µM (inactive)

Question: What about the GI50 [58] of the same molecule?
Answer: 43.8 µM (inactive)

Question: And the GI50 [59]?
Answer: > 100 µM (inactive)
